# Results from ChEMBL document CHEMBL3044552, “Synthesis and biological evaluation of 1-(3-chloro-2-oxo-4-phenylazetidin-1-yl)-3-(2-oxo-2-(10H-phenothiazin-10-yl)ethyl)urea derivatives” (Med Chem Res, 2013).
# Activity calls are given as the source filed them. The calls are words filed in the database; no cut-off is given here.
# Key:
# Trichophyton rubrum [1] = experiment: Antifungal activity against Trichophyton rubrum after 18 hr by serial dilution method; type: functional
# Aspergillus niger [2] = experiment: Antifungal activity against Aspergillus niger after 18 hr by serial dilution method; type: functional
# Monascus purpureus [3] = experiment: Antifungal activity against Monascus purpureus after 18 hr by serial dilution method; type: functional
# Candida albicans [4] = experiment: Antifungal activity against Candida albicans after 18 hr by serial dilution method; type: functional
# [5] = test system: Staphylococcus epidermidis; experiment: Antibacterial activity against Staphylococcus albus after 18 hr by serial dilution method; type: functional
# Bacillus subtilis [6] = experiment: Antibacterial activity against Bacillus subtilis after 18 hr by serial dilution method; type: functional
# Staphylococcus aureus [7] = experiment: Antibacterial activity against Staphylococcus aureus after 18 hr by serial dilution method; type: functional
# Micrococcus luteus [8] = experiment: Antibacterial activity against Micrococcus luteus after 18 hr by serial dilution method; type: functional
# Vibrio cholerae [9] = experiment: Antibacterial activity against Vibrio cholerae after 18 hr by serial dilution method; type: functional
# Salmonella paratyphi [10] = experiment: Antibacterial activity against Salmonella enterica subsp. enterica serovar Paratyphi A after 18 hr by serial dilution method; type: functional
# Escherichia coli [11] = experiment: Antibacterial activity against Escherichia coli after 18 hr by serial dilution method; type: functional
# Pseudomonas aeruginosa [12] = experiment: Antibacterial activity against Pseudomonas aeruginosa after 18 hr by serial dilution method; type: functional
# Trichophyton rubrum [13] = experiment: Antifungal activity against Trichophyton rubrum after 24 hr by disk diffusion method; type: functional
# Aspergillus niger [14] = experiment: Antifungal activity against Aspergillus niger after 24 hr by disc diffusion method; type: functional
# Monascus purpureus [15] = experiment: Antifungal activity against Monascus purpureus after 24 hr by disk diffusion method; type: functional
# Candida albicans [16] = experiment: Antifungal activity against Candida albicans after 24 hr by disk diffusion method; type: functional
# [17] = test system: Staphylococcus epidermidis; experiment: Antibacterial activity against Staphylococcus albus after 24 hr by disk diffusion method; type: functional
# Bacillus subtilis [18] = experiment: Antibacterial activity against Bacillus subtilis after 24 hr by disk diffusion method; type: functional
# Staphylococcus aureus [19] = experiment: Antibacterial activity against Staphylococcus aureus after 24 hr by disk diffusion method; type: functional
# Micrococcus luteus [20] = experiment: Antibacterial activity against Micrococcus luteus after 24 hr by disk diffusion method; type: functional
# HeLa [21] = experiment: Cytotoxicity against Homo sapiens (human) HeLa cells after 48 hr by MTT assay; type: functional, cell-based
# HeLa [22] = experiment: Growth inhibition of Homo sapiens (human) HeLa cells at 100 uM after 48 hr by MTT assay; type: functional; settings: read-out: GI
# HeLa [23] = experiment: Growth inhibition of Homo sapiens (human) HeLa cells at 50 uM after 48 hr by MTT assay; type: functional; settings: read-out: GI
# HeLa [24] = experiment: Growth inhibition of Homo sapiens (human) HeLa cells at 25 uM after 48 hr by MTT assay; type: functional; settings: read-out: GI
# HeLa [25] = experiment: Growth inhibition of Homo sapiens (human) HeLa cells at 12.5 uM after 48 hr by MTT assay; type: functional; settings: read-out: GI
# HeLa [26] = experiment: Growth inhibition of Homo sapiens (human) HeLa cells at 6.25 uM after 48 hr by MTT assay; type: functional; settings: read-out: GI
# [27] = Antioxidant activity assessed as reduction of ferric ion after 30 min by spectrophotometric analysis; type: functional
# [28] = test system: Radical scavenging activity; experiment: Antioxidant activity assessed as DPPH radical scavenging activity after 30 min by spectrophotometric analysis; type: functional
# Pseudomonas aeruginosa [29] = experiment: Antibacterial activity against Pseudomonas aeruginosa after 24 hr by disc diffusion method; type: functional
# Escherichia coli [30] = experiment: Antibacterial activity against Escherichia coli after 24 hr by disc diffusion method; type: functional
# Salmonella paratyphi [31] = experiment: Antibacterial activity against Salmonella enterica subsp. enterica serovar Paratyphi A after 24 hr by disk diffusion method; type: functional
# Vibrio cholerae [32] = experiment: Antibacterial activity against Vibrio cholerae after 24 hr by disk diffusion method; type: functional
# [33] = test system: Mycobacterium tuberculosis; experiment: Growth inhibition of Mycobacterium tuberculosis H37Rv at 1 ug/ml after 7 days by resazurin microplate assay; type: functional, organism-based
# [34] = test system: Mycobacterium tuberculosis; experiment: Growth inhibition of Mycobacterium tuberculosis H37Rv at 100 ug/ml after 7 days by resazurin microplate assay; type: functional, organism-based
# [35] = test system: Mycobacterium tuberculosis; experiment: Growth inhibition of Mycobacterium tuberculosis H37Rv at 10 ug/ml after 7 days by resazurin microplate assay; type: functional, organism-based
compound,measurement,setting,value
O=C(NCC(=O)N1c2ccccc2Sc2ccccc21)NN1C(=O)C(Cl)C1c1ccc(Cl)cc1 (centres undefined),MIC,Trichophyton rubrum [1],250 µg/mL
same,MIC,Aspergillus niger [2],125 µg/mL
same,MIC,Monascus purpureus [3],62.5 µg/mL
same,MIC,Candida albicans [4],125 µg/mL
same,MIC,[5],250 µg/mL
same,MIC,Bacillus subtilis [6],125 µg/mL
same,MIC,Staphylococcus aureus [7],62.5 µg/mL
same,MIC,Micrococcus luteus [8],250 µg/mL
same,MIC,Vibrio cholerae [9],62.5 µg/mL
same,MIC,Salmonella paratyphi [10],250 µg/mL
same,MIC,Escherichia coli [11],62.5 µg/mL
same,MIC,Pseudomonas aeruginosa [12],250 µg/mL
same,diameter of the inhibition zone (DIZ),Trichophyton rubrum [13],6 mm
same,diameter of the inhibition zone (DIZ),Aspergillus niger [14],12 mm
same,diameter of the inhibition zone (DIZ),Monascus purpureus [15],12 mm
same,diameter of the inhibition zone (DIZ),Candida albicans [16],7 mm
same,diameter of the inhibition zone (DIZ),[17],5 mm
same,diameter of the inhibition zone (DIZ),Bacillus subtilis [18],7 mm
same,diameter of the inhibition zone (DIZ),Staphylococcus aureus [19],4 mm
same,diameter of the inhibition zone (DIZ),Micrococcus luteus [20],5 mm
same,IC50,HeLa [21],111 µM
same,inhibition of growth at 100 µM,HeLa [22],44.3%
same,inhibition of growth at 50 µM,HeLa [23],33.6%
same,inhibition of growth at 25 µM,HeLa [24],15.9%
same,inhibition of growth at 12.5 µM,HeLa [25],5.9%
same,inhibition of growth at 6.25 µM,HeLa [26],0.123%
same,Activity,[27],Active
same,EC50,[28],56 µg/mL
same,diameter of the inhibition zone (DIZ),Pseudomonas aeruginosa [29],5 mm
same,diameter of the inhibition zone (DIZ),Escherichia coli [30],19 mm
same,diameter of the inhibition zone (DIZ),Salmonella paratyphi [31],5 mm
same,diameter of the inhibition zone (DIZ),Vibrio cholerae [32],18 mm
O=C(NCC(=O)N1c2ccccc2Sc2ccccc21)NN1C(=O)C(Cl)C1c1ccc([N+](=O)[O-])cc1 (centres undefined),growth inhibition (GI),[33],inactive
same,MIC,Trichophyton rubrum [1],250 µg/mL
same,MIC,Aspergillus niger [2],500 µg/mL
same,MIC,Monascus purpureus [3],62.5 µg/mL
same,MIC,Candida albicans [4],62.5 µg/mL
same,MIC,[5],250 µg/mL
same,MIC,Bacillus subtilis [6],250 µg/mL
same,MIC,Staphylococcus aureus [7],250 µg/mL
same,MIC,Micrococcus luteus [8],250 µg/mL
same,MIC,Vibrio cholerae [9],250 µg/mL
same,MIC,Salmonella paratyphi [10],125 µg/mL
same,MIC,Escherichia coli [11],62.5 µg/mL
same,MIC,Pseudomonas aeruginosa [12],500 µg/mL
same,diameter of the inhibition zone (DIZ),Trichophyton rubrum [13],5 mm
same,diameter of the inhibition zone (DIZ),Aspergillus niger [14],9 mm
same,diameter of the inhibition zone (DIZ),Monascus purpureus [15],13 mm
same,diameter of the inhibition zone (DIZ),Candida albicans [16],14 mm
same,diameter of the inhibition zone (DIZ),[17],4 mm
same,diameter of the inhibition zone (DIZ),Bacillus subtilis [18],5 mm
same,diameter of the inhibition zone (DIZ),Staphylococcus aureus [19],4 mm
same,diameter of the inhibition zone (DIZ),Micrococcus luteus [20],3 mm
same,IC50,HeLa [21],18.3 µM
same,inhibition of growth at 100 µM,HeLa [22],89.5%
same,inhibition of growth at 50 µM,HeLa [23],73.2%
same,inhibition of growth at 25 µM,HeLa [24],56.5%
same,inhibition of growth at 12.5 µM,HeLa [25],41.8%
same,inhibition of growth at 6.25 µM,HeLa [26],23.6%
same,growth inhibition (GI),[34],Active
same,growth inhibition (GI),[35],inactive
same,diameter of the inhibition zone (DIZ),Escherichia coli [30],15 mm
same,diameter of the inhibition zone (DIZ),Salmonella paratyphi [31],7 mm
same,diameter of the inhibition zone (DIZ),Vibrio cholerae [32],5 mm
